The record followed here is patent publication US20080269279A1, “Substituted furo[2,3-B] pyridine derivatives as cannabinoid-1 receptor modulators” (priority 2007, published 2008).

The experiment concerns human GABA α1β3β2 receptors. Kind of experiment: GABAa, 3H-muscimol binding assay. The settings on record: activity at 10 μM as percentage of activity of control compound P18 at 10 μM (increase of 3H-muscimol binding). The procedure:
Membranes from recombinant Ltk cells expressing human GABA α1β3β2 receptors were suspended in an ice-cold solution of 100 mM KCl, 10 mM KH2PO4, adjusted to pH=7.4 with 1 M KOH. Tritiated muscimol (PerkinElmer, Wellesley, Mass.) at a concentration of 2 nM, and serial five-fold dilutions of test compounds at 10 μM, 2.0 μM, 400 nM, 80 nM, 16 nM, 3.2 nM, 0.64 nM and 0.13 nM were mixed in 96-well plates containing 200 μL of membrane suspension. Cold muscimol and compound P18 were used as negative and positive controls respectively. The assay mixture was incubated at 4° C. for 2 hours, then harvested on GF/C filter plates and washed with ice-cold 50 mM Tris-Ci buffer. The filter plates were dried and counted in a Wallac MicroBeta® Trilux detector (Model 1450-030; PerkinElmer, Wellesley, Mass.), and the data were downloaded and analyzed using Prism 3.0. The activity of compound P18 at 10 μM was used as reference for the test compounds, and it was expressed as increasing ^3H-muscimol binding by 100%, whereas cold muscimol at 2 μM antagonized ^3H-muscimol binding by 100%. The tested compound's activity at 10 μM was expressed as a percentage of compound P18's activity at 10 μM.
As a reference, the parent compound (the compound not substituted with a R^4 heteroaryl, such as pyrazole or 1,2,4-oxadiazole, as indicated below) is also shown with its Gamma Amino Butyric Acid (GABA) Receptor activity. […] As a result, the compounds of the present invention in which R^4 is a heteroaryl, such as pyrazole or 1,2,4-oxadiazole, have the unexpected benefits of minimizing off target activity at the GABA receptor.
Note: % GABA is defined as the GABA activity of the indicated compound expressed as a percentage of the activity of control compound P18. NA=data not available.

Where a name gives a salt, the structure may show the parent alone.

On to `CC(=O)Nc1c(C(=O)C(C)(C)C)oc2nc(-c3ccc(-c4cn[nH]c4)cc3Cl)c(-c3ccc(Cl)cc3)cc12` [Example 4, N-[5-(4-Chlorophenyl)-6-[2-chloro-4-(1H-pyrazol-4-yl)phenyl]-2-(2,2-dimethylpropanoyl)furo[2,3-b]pyridin-3-yl]acetamide], for which the “% GABA Example” value turned out to be 12%.

For the compound `CCC(=O)c1oc2nc(-c3ccc(-c4cn[nH]c4)cc3Cl)c(-c3ccc(Cl)cc3)cc2c1NC(C)=O` [Example 5, N-{5-(4-Chlorophenyl)-6-[2-chloro-4-(1H-pyrazol-4-yl)phenyl]-2-propionylfuro[2,3-b]pyridin-3-yl}acetamide], the “% GABA Example” value turned out to be 11%. As to `CC(C)C(=O)Nc1c(C(=O)C(C)(C)C)oc2nc(-c3ccc(-c4cn[nH]c4)cc3Cl)c(-c3ccc(Cl)cc3)cc12` [Example 6, N-[5-(4-Chlorophenyl)-6-[2-chloro-4-(1H-pyrazol-4-yl)phenyl]-2-(2,2-dimethylpropanoyl)furo[2,3-b]pyridin-3-yl]-2-methylpropanamide], the “% GABA Example” value is 3%. The result for `CCC(=O)c1oc2nc(-c3ccc(-c4cn[nH]c4)cc3Cl)c(-c3ccc(Cl)cc3)cc2c1N` [Example 8, 1-{3-Amino-5-(4-chlorophenyl)-6-[2-chloro-4-(1H-pyrazol-4-yl)phenyl]furo[2,3-b]pyridin-2-yl}propan-1-one] reads 26%; that for `Cc1c(C(=O)C(C)(C)O)oc2nc(-c3ccc(-c4cn[nH]c4)cc3Cl)c(-c3ccc(Cl)cc3)cc12` [Example 9, 1-{5-(4-Chlorophenyl)-6-[2-chloro-4-(1H-pyrazol-4-yl)phenyl]-3-methylfuro[2,3-b]pyridin-2-yl}-2-hydroxy-2-methylpropan-1-one], 30%; that for `Cc1c(C(=O)C(C)(C)C)oc2nc(-c3ccc(-c4cn[nH]c4)cc3Cl)c(-c3ccc(Cl)cc3)cc12` [Example 10, 1-{5-(4-Chlorophenyl)-6-[2-chloro-4-(1H-pyrazol-4-yl)phenyl]-3-methylfuro[2,3-b]pyridin-2-yl}-2,2-dimethylpropan-1-one], 9%. `Cc1c(C(=O)CC(C)C)oc2nc(-c3ccc(-c4cn[nH]c4)cc3Cl)c(-c3ccc(Cl)cc3)cc12` [Example 12, 1-{5-(4-Chlorophenyl)-6-[2-chloro-4-(1H-pyrazol-4-yl)phenyl]-3-methylfuro[2,3-b]pyridin-2-yl}-3-methylbutan-1-one]: the “% GABA Example” value worked out at 51%. Turning to `CCC(=O)c1oc2nc(-c3ccc(-c4cn[nH]c4)cc3Cl)c(-c3ccc(Cl)cc3)cc2c1NC(=O)C(C)(C)O` [Example 13, N-{5-(4-Chlorophenyl)-6-[2-chloro-4-(1H-pyrazol-4-yl)phenyl]-2-propionylfuro[2,3-b]pyridin-3-yl}-2-hydroxy-2-methylpropanamide], the “% GABA Example” value is 15%.

Turning to `C[C@H](O)C(=O)Nc1c(C(=O)C(C)(C)C)oc2nc(-c3ccc(-c4cn[nH]c4)cc3Cl)c(-c3ccc(Cl)cc3)cc12` [Example 14, (2S)-N-[5-(4-Chlorophenyl)-6-[2-chloro-4-(1H-pyrazol-4-yl)phenyl]-2-(2,2-dimethylpropanoyl)furo[2,3-b]pyridin-3-yl]-2-hydroxypropanamide], the “% GABA Example” value stood at 13%. For the compound `CCC(=O)c1oc2nc(-c3ccc(-c4cn[nH]c4)cc3Cl)c(-c3ccc(Cl)cc3)cc2c1NC(=O)[C@H](C)O` [Example 15, (2S)-N-{5-(4-Chlorophenyl)-6-[2-chloro-4-(1H-pyrazol-4-yl)phenyl]-2-propionylfuro[2,3-b]pyridin-3-yl}-2-hydroxypropanamide], the “% GABA Example” value came to 13%. The result for `CC(C)(C)C(=O)c1oc2nc(-c3ccc(-c4cn[nH]c4)cc3Cl)c(-c3ccc(Cl)cc3)cc2c1NC(=O)C(C)(C)O` [Example 16, N-[5-(4-Chlorophenyl)-6-[2-chloro-4-(1H-pyrazol-4-yl)phenyl]-2-(2,2-dimethylpropanoyl)furo[2,3-b]pyridin-3-yl]-2-hydroxy-2-methylpropanamide] reads 11%; that for `CCC(=O)c1oc2nc(-c3ccc(-c4cn[nH]c4)cc3Cl)c(-c3ccc(Cl)cc3)cc2c1NC(=O)CO` [Example 17, N-{5-(4-Chlorophenyl)-6-[2-chloro-4-(1H-pyrazol-4-yl)phenyl]-2-propionylfuro[2,3-b]pyridin-3-yl}-2-hydroxyacetamidetrifluoroacetate (salt)], 36%. The result for `CC(=O)Nc1c(C(=O)C(C)(C)O)oc2nc(-c3ccc(-c4cc[nH]n4)cc3Cl)c(-c3ccc(Cl)cc3)cc12` [Example 18, N-[5-(4-Chlorophenyl)-6-[2-chloro-4-(1H-pyrazol-3-yl)phenyl]-2-(2-hydroxy-2-methylpropanoyl)furo[2,3-b]pyridin-3-yl]acetamide] reads 26%; that for `CC(=O)Nc1c(C(=O)C(C)(C)C)oc2nc(-c3ccc(-c4cc[nH]n4)cc3Cl)c(-c3ccc(Cl)cc3)cc12` [Example 19, N-[5-(4-Chlorophenyl)-6-[2-chloro-4-(1H-pyrazol-3-yl)phenyl]-2-(2,2-dimethylpropanoyl)furo[2,3-b]pyridin-3-yl]acetamide], 16%; that for `CC(C)(C)C(=O)c1oc2nc(-c3ccc(-c4cc[nH]n4)cc3Cl)c(-c3ccc(Cl)cc3)cc2c1C(N)=O` [Example 20, 5-(4-Chlorophenyl)-6-[2-chloro-4-(1H-pyrazol-3-yl)phenyl]-2-(2,2-dimethylpropanoyl)furo[2,3-b]pyridine-3-carboxamide], 13%. The result for `CC(C)(O)C(=O)c1oc2nc(-c3ccc(-c4cc[nH]n4)cc3Cl)c(-c3ccc(Cl)cc3)cc2c1N` [Example 21, 1-{3-Amino-5-(4-chlorophenyl)-6-[2-chloro-4-(1H-pyrazol-3-yl)phenyl]furo-[2,3-b]pyridin-2-yl}-2-hydroxy-2-methylpropan-1-one] reads 27%; that for `CC(C)C(=O)c1oc2nc(-c3ccc(-c4cc[nH]n4)cc3Cl)c(-c3ccc(Cl)cc3)cc2c1N` [Example 22, 1-{3-Amino-5-(4-chlorophenyl)-6-[2-chloro-4-(1H-pyrazol-3-yl)phenyl]furo-[2,3-b]pyridin-2-yl}-2-methylpropan-1-one], 18%.

In the case of `Cc1c(C(=O)C(C)(C)O)oc2nc(-c3ccc(-c4cc[nH]n4)cc3Cl)c(-c3ccc(Cl)cc3)cc12` [Example 23, 1-{5-(4-Chlorophenyl)-6-[2-chloro-4-(1H-pyrazol-3-yl)phenyl]-3-methylfuro[2,3-b]pyridin-2-yl}-2-hydroxy-2-methylpropan-1-one], the “% GABA Example” value is given as 24%. Under `Cc1c(S(=O)(=O)C(C)(C)C)oc2nc(-c3ccc(-c4cc[nH]n4)cc3Cl)c(-c3ccc(Cl)cc3)cc12` [Example 24, 2-(Tert-butylsulfonyl)-5-(4-chlorophenyl)-6-[2-chloro-4-(1H-pyrazol-3-yl)phenyl]-3-methylfuro[2,3-b]pyridine] stands 13%; under `Cc1c(C(=O)C(C)C)oc2nc(-c3ccc(-c4cc[nH]n4)cc3Cl)c(-c3ccc(Cl)cc3)cc12` [Example 25, 1-{5-(4-Chlorophenyl)-6-[2-chloro-4-(1H-pyrazol-3-yl)phenyl]-3-methylfuro[2,3-b]pyridin-2-yl}-2-methylpropan-1-one], 35%. The result for `CCC(=O)c1oc2nc(-c3ccc(-c4cc[nH]n4)cc3Cl)c(-c3ccc(Cl)cc3)cc2c1C` [Example 26, 1-{5-(4-Chlorophenyl)-6-[2-chloro-4-(1H-pyrazol-3-yl)phenyl]-3-methylfuro[2,3-b]pyridin-2-yl}propan-1-one] reads 28%; that for `CC(C)(C)C(=O)c1oc2nc(-c3ccc(-c4cc[nH]n4)cc3Cl)c(-c3ccc(Cl)cc3)cc2c1NC(=O)CO` [Example 27, N-[5-(4-Chlorophenyl)-6-[2-chloro-4-(3H-pyrazol-5-yl)phenyl]-2-(2,2-dimethyl-propanoyl)furo[2,3-b]pyridin-3-yl]-2-hydroxyacetamide], 29%. The result for `CC(C)C(=O)c1oc2nc(-c3ccc(-c4cc[nH]n4)cc3Cl)c(-c3ccc(Cl)cc3)cc2c1N1CCCC1=O` [Example 28, 1-{5-(4-Chlorophenyl)-6-[2-chloro-4-(1H-pyrazol-3-yl)phenyl]-2-isobutyrylfuro[2,3-b]pyridin-3-yl}pyrrolidin-2-one] reads 16%; that for `CNC(=O)c1c(C(=O)C(C)(C)C)oc2nc(-c3ccc(-c4cc[nH]n4)cc3Cl)c(-c3ccc(Cl)cc3)cc12` [Example 29, 5-(4-Chlorophenyl)-6-[2-chloro-4-(1H-pyrazol-3-yl)phenyl]-2-(2,2-dimethylpropanoyl)-N-methylfuro[2,3-b]pyridine-3-carboxamide], 20%. On to `CC(=O)n1cc(-c2ccc(-c3nc4oc(C(=O)C(C)(C)O)c(N)c4cc3-c3ccc(Cl)cc3)c(Cl)c2)cn1` [Example 30, 1-[6-[4-(1-Acetyl-1H-pirazol-4-yl)-2-chlorophenyl]-3-amino-5-(4-chlorophenyl)furo[2,3-b]pyridin-2-yl]-2-hydroxy-2-methylpropan-1-one], for which the “% GABA Example” value is listed as 19%.
